{
  "source": "ChEMBL document CHEMBL1201862",
  "about": "“PubChem BioAssay data set” (2004)",
  "key": {"[1]": {"test": "glucagon-like peptide-1 release potency in STC-1, concentration-response, half-maximal inhibitory concentration in the STC-1 line (AID 1117345)", "assay_type": "functional, cell-based"}, "[2]": {"test": "Potency on glucagon-like peptide 1 release, dose-response in NCI-H716 cell line, half maximal inhibitory concentration (AID 1117344)", "assay_type": "functional, cell-based"}, "[3]": {"biological_target": "T1, Short transient receptor potential channel 4 (Mus musculus, UniProt Q9QUQ5)", "T1 sequence (Q9QUQ5 whole entry)": "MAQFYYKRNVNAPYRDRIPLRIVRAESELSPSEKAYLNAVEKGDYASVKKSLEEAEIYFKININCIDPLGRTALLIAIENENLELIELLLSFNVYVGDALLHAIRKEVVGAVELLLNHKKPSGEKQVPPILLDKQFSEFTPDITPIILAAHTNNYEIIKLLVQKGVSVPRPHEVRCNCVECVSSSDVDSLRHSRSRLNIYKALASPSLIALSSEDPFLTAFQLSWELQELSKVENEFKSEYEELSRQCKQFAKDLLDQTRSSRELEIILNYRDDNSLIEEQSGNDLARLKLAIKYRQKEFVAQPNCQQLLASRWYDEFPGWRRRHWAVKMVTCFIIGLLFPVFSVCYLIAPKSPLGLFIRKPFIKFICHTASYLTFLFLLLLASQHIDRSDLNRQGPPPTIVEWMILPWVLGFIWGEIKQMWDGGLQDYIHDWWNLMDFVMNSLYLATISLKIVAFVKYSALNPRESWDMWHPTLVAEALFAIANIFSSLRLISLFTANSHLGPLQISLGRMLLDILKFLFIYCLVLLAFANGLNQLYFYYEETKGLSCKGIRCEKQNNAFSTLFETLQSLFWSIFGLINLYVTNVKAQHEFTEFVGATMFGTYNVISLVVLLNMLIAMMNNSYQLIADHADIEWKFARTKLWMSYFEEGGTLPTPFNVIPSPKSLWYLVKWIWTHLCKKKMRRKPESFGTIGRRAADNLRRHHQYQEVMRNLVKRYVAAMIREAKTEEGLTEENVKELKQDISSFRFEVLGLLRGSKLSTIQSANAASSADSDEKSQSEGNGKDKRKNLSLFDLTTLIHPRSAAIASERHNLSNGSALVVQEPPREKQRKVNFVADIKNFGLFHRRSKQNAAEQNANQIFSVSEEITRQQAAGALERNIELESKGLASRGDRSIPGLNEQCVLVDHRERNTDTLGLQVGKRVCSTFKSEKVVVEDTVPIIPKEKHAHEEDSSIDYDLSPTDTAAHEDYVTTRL", "test": "block of DAMGO-driven TRPC4 calcium entry – cell-based, HEK293 TRPC4/mu-opioid, Fluo-4 calcium, dose response (AID 434942)", "assay_type": "functional"}, "[4]": {"test": "antifungal activity, alamar blue, dry powder, counter-screen for C. neoformans cell wall antifungals, dose response (AID 743128)", "assay_type": "functional, organism-based"}, "[5]": {"test": "loss of HEK293T viability via ATP – cell-based, plate reader, dry powder, set 10, cytotoxicity control, dose response (AID 743315)", "assay_type": "functional", "conditions": "HEK293"}, "Genome polyprotein [6]": {"biological_target": "T2, Genome polyprotein (Hepatitis C virus, UniProt Q2Q167)", "T2 sequence (Q2Q167 whole entry)": "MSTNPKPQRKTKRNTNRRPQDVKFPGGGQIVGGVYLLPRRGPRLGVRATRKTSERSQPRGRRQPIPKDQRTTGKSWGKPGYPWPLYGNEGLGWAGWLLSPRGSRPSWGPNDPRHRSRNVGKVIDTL", "test": "disruption of hepatitis C core self-association – biochemical, TR-FRET, dose response (AID 2159);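 further: blocks dimerization of HCV core protein measured by TR-FRET between tagged core106 pairs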", "set-up": "species or system Hepacivirus hominis"}, "Bcl-2-related protein A1": {"biological_target": "T3, Bcl-2-related protein A1 (Mus musculus, UniProt Q07440)", "T3 sequence (Q07440 whole entry)": "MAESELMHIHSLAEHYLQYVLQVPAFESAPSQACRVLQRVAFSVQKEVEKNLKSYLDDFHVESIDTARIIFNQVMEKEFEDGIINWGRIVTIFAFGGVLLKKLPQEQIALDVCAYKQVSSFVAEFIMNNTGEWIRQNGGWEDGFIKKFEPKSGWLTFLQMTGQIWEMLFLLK", "assay_type": "functional"}, "[7]": {"biological_target": "T4, Ubiquitin-conjugating enzyme E2 N (Homo sapiens, UniProt P61088)", "T4 sequence (P61088 whole entry)": "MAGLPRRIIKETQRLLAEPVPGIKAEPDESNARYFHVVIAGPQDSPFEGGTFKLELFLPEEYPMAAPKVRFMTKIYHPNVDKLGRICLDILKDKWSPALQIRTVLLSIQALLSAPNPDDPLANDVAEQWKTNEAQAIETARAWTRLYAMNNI", "assay_type": "functional"}, "[8]": {"biological_target": "T4, Ubiquitin-conjugating enzyme E2 N", "assay_type": "functional", "remark": "listed apart in the source"}, "Genome polyprotein [9]": {"biological_target": "T2, Genome polyprotein", "test": "Late stage assay provider counterscreen results for the probe development effort to identify inhibitors of Hepatitis C Virus (HCV) core protein dimerization: Luminescence-based biochemical AlphaScreen assay to identify inhibitors of HCV core dimerization.", "assay_type": "functional, Hepacivirus hominis"}, "[10]": {"test": "growth inhibition of yeast DHODH-expressing 3D7 parasites – SYBR Green, dry powder samples, dose response (AID 1159570);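 further: parasite growth measured after 72 hours of compound exposure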", "assay_type": "functional, cell-based"}, "[11]": {"test": "toxicity to human HepG2 hepatoma cells – cell-based, plate reader, dry powder samples, cytotoxicity control, dose response (AID 1159569);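 further: inhibitor potency with signal falling toward the positive control level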", "assay_type": "functional"}, "[12]": {"test": "P. falciparum Dd2 growth inhibitors, dose response, SYBR Green, cherry-picked samples (AID 1159567)", "assay_type": "functional, cell-based"}, "[13]": {"test": "antimalarial activity against Dd2 parasites – SYBR Green fluorescence, erythrocytes, dry powder, set 2, dose response (AID 1159574)", "assay_type": "functional, cell-based"}, "[14]": {"test": "Dd2 malaria parasite growth inhibition potency – SYBR Green, dry powder samples, dose response (AID 1159566);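 further: potency for growth inhibition with lower SYBR green DNA signal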", "assay_type": "functional, cell-based"}, "[15]": {"test": "growth inhibition of PfATP4-mutant resistant parasites – NITD609-resistant line, SYBR Green, dry powder, dose response (AID 1159571);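 further: parasites synchronized at ring stage by sorbitol before testing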", "assay_type": "functional, cell-based"}, "[16]": {"biological_target": "Ubiquitin carboxyl-terminal hydrolase BAP1 (Homo sapiens, UniProt Q92560)", "sequence (Q92560 whole entry)": "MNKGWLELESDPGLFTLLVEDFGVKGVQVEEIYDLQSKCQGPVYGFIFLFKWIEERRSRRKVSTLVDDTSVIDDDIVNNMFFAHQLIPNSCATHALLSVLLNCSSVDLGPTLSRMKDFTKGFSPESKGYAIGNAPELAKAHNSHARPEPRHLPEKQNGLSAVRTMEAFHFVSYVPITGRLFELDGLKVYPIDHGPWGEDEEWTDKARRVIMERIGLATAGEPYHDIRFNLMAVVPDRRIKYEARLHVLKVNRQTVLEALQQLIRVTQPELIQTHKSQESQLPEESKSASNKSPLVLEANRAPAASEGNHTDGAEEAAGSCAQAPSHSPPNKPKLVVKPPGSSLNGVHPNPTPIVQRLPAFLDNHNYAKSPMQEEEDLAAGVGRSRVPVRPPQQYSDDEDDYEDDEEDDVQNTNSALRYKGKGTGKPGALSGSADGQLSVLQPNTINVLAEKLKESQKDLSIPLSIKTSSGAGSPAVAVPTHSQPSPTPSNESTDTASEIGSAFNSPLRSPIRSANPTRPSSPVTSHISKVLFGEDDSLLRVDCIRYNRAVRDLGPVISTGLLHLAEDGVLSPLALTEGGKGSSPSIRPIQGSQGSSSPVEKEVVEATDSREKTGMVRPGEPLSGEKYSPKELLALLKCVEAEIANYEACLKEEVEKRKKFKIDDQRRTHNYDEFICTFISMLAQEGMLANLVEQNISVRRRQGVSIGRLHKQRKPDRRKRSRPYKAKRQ", "test": "inhibition of BAP1 ubiquitin hydrolase activity – biochemical, dose response (AID 714)", "assay_type": "functional"}, "Estrogen receptor beta [17]": {"biological_target": "T5, Estrogen receptor beta (Homo sapiens, UniProt Q92731)", "T5 sequence (Q92731 whole entry)": "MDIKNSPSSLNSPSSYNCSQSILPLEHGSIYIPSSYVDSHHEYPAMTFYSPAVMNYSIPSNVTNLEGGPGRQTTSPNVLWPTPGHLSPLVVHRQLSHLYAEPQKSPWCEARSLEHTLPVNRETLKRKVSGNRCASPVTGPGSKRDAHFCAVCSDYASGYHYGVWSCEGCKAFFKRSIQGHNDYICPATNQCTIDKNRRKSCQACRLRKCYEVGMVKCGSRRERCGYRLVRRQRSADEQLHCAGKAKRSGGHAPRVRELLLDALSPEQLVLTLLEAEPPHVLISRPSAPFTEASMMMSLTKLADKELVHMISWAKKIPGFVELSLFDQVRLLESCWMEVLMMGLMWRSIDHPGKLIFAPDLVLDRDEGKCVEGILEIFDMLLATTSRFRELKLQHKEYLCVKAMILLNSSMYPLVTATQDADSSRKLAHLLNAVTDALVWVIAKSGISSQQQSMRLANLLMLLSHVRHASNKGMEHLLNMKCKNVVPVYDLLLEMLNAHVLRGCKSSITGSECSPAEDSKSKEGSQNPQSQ"}, "Estrogen receptor beta [18]": {"biological_target": "T5, Estrogen receptor beta", "test": "blockers of SRC-3 recruitment to ERβ – biochemical, ELISA, streptavidin-HRP readout, orthogonal assay, confirmation (AID 1060)"}, "Protein Tat": {"biological_target": "Protein Tat (Human immunodeficiency virus type 1 group M subtype B (isolate HXB2)(HIV-1), UniProt P04608)", "sequence (P04608 whole entry)": "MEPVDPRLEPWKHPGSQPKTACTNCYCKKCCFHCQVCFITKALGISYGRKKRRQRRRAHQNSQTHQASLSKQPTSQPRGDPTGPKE", "assay_type": "functional"}, "[19]": {"biological_target": "Peroxisome proliferator-activated receptor gamma/Nuclear receptor corepressor 2 (Homo sapiens, UniProt P37231+Q9Y618)", "sequence (P37231 whole entry)": "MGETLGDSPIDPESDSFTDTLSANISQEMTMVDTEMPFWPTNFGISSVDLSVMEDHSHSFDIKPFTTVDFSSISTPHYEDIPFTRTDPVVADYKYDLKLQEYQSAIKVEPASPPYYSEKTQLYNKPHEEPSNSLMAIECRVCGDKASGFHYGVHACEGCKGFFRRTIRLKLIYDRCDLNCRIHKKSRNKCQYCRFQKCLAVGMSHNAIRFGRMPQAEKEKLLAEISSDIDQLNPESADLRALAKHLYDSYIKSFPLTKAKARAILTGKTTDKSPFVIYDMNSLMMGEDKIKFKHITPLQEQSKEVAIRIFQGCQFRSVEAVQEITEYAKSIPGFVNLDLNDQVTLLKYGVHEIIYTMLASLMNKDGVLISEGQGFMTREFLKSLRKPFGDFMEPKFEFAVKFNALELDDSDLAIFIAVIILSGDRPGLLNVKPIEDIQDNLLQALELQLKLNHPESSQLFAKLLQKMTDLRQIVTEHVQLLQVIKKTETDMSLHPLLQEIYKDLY", "sequence (Q9Y618 whole entry)": "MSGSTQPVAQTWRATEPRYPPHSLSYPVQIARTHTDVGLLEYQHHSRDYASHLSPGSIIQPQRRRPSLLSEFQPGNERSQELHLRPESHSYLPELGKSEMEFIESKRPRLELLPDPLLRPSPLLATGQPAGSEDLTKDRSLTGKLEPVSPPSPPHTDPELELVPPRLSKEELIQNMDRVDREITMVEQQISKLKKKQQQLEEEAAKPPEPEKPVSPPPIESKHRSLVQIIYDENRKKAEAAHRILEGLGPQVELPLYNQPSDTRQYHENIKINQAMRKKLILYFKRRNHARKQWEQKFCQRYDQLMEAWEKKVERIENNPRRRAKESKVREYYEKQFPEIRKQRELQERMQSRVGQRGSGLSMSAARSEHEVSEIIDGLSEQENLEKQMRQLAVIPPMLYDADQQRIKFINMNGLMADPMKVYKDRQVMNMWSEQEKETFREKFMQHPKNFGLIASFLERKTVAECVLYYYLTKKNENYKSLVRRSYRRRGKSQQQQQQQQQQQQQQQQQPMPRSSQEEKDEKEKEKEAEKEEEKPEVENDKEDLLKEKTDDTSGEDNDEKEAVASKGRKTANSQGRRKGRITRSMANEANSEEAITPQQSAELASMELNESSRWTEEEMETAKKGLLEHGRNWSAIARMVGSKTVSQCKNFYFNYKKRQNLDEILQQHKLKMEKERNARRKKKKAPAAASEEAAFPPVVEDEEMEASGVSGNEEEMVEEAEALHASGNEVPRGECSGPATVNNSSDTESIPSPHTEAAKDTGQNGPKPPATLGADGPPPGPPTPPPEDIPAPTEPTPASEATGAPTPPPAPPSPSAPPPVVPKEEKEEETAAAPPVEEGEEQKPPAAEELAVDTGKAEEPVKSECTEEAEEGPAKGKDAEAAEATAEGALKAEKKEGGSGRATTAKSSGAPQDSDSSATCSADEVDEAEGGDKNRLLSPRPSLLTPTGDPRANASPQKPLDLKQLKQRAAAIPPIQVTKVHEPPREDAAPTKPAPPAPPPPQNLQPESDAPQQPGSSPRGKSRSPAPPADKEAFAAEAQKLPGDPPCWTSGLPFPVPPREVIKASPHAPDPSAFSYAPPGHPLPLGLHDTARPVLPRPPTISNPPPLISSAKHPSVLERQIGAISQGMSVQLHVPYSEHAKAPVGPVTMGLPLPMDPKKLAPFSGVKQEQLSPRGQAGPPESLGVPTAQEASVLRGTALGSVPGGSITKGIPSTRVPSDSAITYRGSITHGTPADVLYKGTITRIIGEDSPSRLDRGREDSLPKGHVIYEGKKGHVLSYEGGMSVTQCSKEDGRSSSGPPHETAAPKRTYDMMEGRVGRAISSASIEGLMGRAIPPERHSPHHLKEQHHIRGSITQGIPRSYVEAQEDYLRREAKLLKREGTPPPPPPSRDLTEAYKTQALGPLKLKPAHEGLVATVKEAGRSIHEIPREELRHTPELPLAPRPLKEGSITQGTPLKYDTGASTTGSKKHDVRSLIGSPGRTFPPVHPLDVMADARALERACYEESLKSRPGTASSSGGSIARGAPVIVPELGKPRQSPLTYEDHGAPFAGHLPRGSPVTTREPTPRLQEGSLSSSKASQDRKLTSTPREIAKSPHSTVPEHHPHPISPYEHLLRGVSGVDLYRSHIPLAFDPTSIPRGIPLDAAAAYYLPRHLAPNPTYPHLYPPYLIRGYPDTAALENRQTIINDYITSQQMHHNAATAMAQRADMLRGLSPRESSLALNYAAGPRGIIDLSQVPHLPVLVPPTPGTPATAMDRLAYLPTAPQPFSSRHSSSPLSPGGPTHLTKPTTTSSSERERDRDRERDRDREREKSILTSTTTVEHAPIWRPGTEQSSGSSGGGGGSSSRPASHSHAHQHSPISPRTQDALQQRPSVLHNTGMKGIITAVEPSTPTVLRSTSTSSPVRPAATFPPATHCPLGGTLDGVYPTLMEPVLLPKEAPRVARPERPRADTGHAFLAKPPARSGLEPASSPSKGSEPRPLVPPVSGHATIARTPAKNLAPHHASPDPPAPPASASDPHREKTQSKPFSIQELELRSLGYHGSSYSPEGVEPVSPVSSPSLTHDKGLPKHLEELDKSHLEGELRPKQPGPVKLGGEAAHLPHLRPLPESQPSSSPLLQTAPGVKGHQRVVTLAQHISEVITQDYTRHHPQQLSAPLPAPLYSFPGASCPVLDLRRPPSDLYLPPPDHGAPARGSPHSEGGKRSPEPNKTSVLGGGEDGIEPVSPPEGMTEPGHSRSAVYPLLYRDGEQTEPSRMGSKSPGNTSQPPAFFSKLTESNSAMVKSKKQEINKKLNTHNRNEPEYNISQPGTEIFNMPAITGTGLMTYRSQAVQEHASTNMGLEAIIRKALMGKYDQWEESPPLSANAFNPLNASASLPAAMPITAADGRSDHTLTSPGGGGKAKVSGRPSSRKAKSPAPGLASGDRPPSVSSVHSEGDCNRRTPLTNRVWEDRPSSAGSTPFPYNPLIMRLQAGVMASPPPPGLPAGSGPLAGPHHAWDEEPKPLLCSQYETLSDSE", "test": "Counterscreen for NR2E3 inverse agonists: TR-FRET-based biochemical high throughput dose response assay to identify inverse agonists of the interaction between peroxisome proliferator-activated receptor gamma (PPARg) and nuclear receptor co-repressor 2 (NCOR2).", "assay_type": "functional"}, "[20]": {"biological_target": "Photoreceptor-specific nuclear receptor (Homo sapiens, UniProt Q9Y5X4)", "sequence (Q9Y5X4 whole entry)": "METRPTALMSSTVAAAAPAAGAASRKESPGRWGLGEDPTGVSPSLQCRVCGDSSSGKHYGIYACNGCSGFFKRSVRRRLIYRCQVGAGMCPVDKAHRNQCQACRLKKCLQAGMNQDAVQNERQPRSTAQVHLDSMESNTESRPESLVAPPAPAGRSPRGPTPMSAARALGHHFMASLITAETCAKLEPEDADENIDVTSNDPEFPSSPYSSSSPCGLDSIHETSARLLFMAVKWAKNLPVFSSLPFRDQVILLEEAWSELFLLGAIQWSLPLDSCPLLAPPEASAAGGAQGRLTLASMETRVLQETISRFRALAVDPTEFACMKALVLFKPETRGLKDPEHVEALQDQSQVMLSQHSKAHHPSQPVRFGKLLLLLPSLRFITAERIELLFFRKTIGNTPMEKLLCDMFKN", "test": "ligands suppressing NR2E3 nuclear receptor activity – biochemical, TR-FRET, dose response (AID 463256)", "assay_type": "functional"}, "[21]": {"test": "viability of uninfected HEp-2 cells – cell-based, HTS, cytotoxicity control for RSV inhibitor project, dose response (AID 2410)", "assay_type": "functional", "conditions": "human respiratory syncytial virus"}, "[22]": {"system": "Streptococcus sp. 'group A'", "test": "Streptococcus pyogenes SK(-)GAS viability under kanamycin – luminescence, BacTiterGlo, confirmation, counter-screen for streptokinase expression inhibitor project, dose response (AID 1900)", "assay_type": "functional, organism-based"}, "Streptokinase A": {"biological_target": "T6, Streptokinase A (Streptococcus pyogenes serotype M1, UniProt P10520)", "T6 sequence (P10520 whole entry)": "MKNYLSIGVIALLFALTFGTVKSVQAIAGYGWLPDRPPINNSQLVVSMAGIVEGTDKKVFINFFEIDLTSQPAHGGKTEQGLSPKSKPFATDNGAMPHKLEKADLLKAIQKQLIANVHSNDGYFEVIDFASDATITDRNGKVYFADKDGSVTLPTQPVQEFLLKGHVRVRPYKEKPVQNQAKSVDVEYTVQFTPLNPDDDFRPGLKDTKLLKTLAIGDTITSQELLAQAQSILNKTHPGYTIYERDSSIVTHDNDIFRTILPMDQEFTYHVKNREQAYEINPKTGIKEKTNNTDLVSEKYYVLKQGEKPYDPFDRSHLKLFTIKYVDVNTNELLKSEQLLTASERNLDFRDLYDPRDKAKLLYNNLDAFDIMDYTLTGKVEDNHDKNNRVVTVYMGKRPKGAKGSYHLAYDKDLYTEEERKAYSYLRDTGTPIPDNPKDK", "test": "viability-normalized secreted streptokinase activity reduction – plasminogen activation absorbance, OD405, dose response (AID 1914)", "assay_type": "functional, Streptococcus pyogenes M1 GAS"}, "[23]": {"test": "M. tuberculosis growth inhibition, HTS (AID 449762)", "assay_type": "functional"}, "Streptococcus": {"system": "Streptococcus", "test": "GAS UMAA2166 growth inhibition – luminescence, BacTiterGlo, counter-screen for streptokinase expression inhibitor project, dose response (AID 1915)", "assay_type": "functional, organism-based"}},
  "note": "Activity calls are given as the source filed them.",
  "data": [
    {"smiles": "Cc1cc(O)c(C(C)C)cc1Cl", "note": "[CHLOROTHYMOL]", "values": [
      {"measurement": "IC50", "setting": "[1]", "result": "14.1 µM (inactive)"},
      {"measurement": "IC50", "setting": "[2]", "result": "26.5 µM (inactive)"}
    ]},
    {"smiles": "Cc1ccc(OCCn2c(C)nc3ccccc32)cc1", "values": [
      {"measurement": "EC50", "setting": "[3]", "result": "0.944 µM (active)"},
      {"measurement": "AC50", "setting": "[4]", "result": "41.6 µM (active)"},
      {"measurement": "AC50", "setting": "[5]", "result": "40.5 µM (active)"}
    ]},
    {"smiles": "Cc1ccc(Cc2c(C)nc3nc(SCC(=O)NCCCN4CCCCCC4)nn3c2C)cc1", "values": [
      {"measurement": "IC50", "setting": "Genome polyprotein [6]", "result": "9.87 µM (active)"},
      {"measurement": "IC50", "setting": "Bcl-2-related protein A1", "result": "> 20 µM (inactive)"},
      {"measurement": "IC50", "setting": "[7]", "result": "13.2 µM (active)"},
      {"measurement": "IC50", "setting": "[8]", "result": "> 20 µM (inactive)"},
      {"measurement": "IC50", "setting": "Genome polyprotein [9]", "result": "5 µM (active)"}
    ]},
    {"smiles": "COc1ccc(S(=O)(=O)N(C)C[C@@H]2OCc3ccccc3-c3c(n(C)c4ccccc34)C(=O)N([C@@H](C)CO)C[C@@H]2C)cc1", "values": [
      {"measurement": "AC50", "setting": "[10]", "result": "0.126 µM (active)"},
      {"measurement": "AC50", "setting": "[11]", "result": "84.3 µM (active)"},
      {"measurement": "AC50", "setting": "[12]", "result": "0.689 µM (active)"},
      {"measurement": "AC50", "setting": "[13]", "result": "0.853 µM (active)"},
      {"measurement": "AC50", "setting": "[14]", "result": "0.0794 µM (active)"},
      {"measurement": "AC50", "setting": "[15]", "result": "0.115 µM (active)"}
    ]},
    {"smiles": "Cc1ccc(-c2nc3s/c(=C\\c4ccco4)c(=O)n3n2)cc1", "values": [
      {"measurement": "IC50", "setting": "[16]", "result": "22.6 µM (active)"},
      {"measurement": "IC50", "setting": "Estrogen receptor beta [17]", "result": "> 50 µM (not active)"},
      {"measurement": "IC50", "setting": "Estrogen receptor beta [18]", "result": "> 50 µM (not active)"},
      {"measurement": "IC50", "setting": "Protein Tat", "result": "> 100 µM (active)"}
    ]},
    {"smiles": "CCOCCCNC(=O)c1cc(-c2ccc(Br)s2)nc2ccccc12", "values": [
      {"measurement": "IC50", "setting": "[19]", "result": "4.18 µM (active)"},
      {"measurement": "IC50", "setting": "[20]", "result": "6.67 µM (active)"}
    ]},
    {"smiles": "Oc1ccc(/C=N/n2c3ccccc3c3ccccc32)cc1", "values": [
      {"measurement": "CC50", "setting": "[21]", "result": "17.2 µM (active)"},
      {"measurement": "EC50", "setting": "[22]", "result": "6.24 µM (active)"},
      {"measurement": "EC50", "setting": "Streptokinase A", "result": "> 150 µM (not active)"},
      {"measurement": "IC50", "setting": "[23]", "result": "> 100 µM (active)"},
      {"measurement": "EC50", "setting": "Streptococcus", "result": "10.8 µM (active)"}
    ]}
  ]
}
